Test results: ChEMBL document CHEMBL4339189, “Dissymmetric pyridyl-substituted 3,5-bis(arylidene)-4-piperidones as anti-hepatoma agents by inhibiting NF-κB pathway activation” (Eur J Med Chem, 2019)
Active and inactive are the calls of the source. The calls are words filed in the database; no cut-off is given here.

Assays:
[1] = tested on: RAW264.7; assay: Antiinflammatory activity in mouse RAW264.7 cells assessed as inhibition of LPS-stimulated TNF-alpha production at 6.0 uM preincubated for 2 hrs followed by LPS stimulaton measured after 22 hrs by ELISA relative to control; type: functional
[2] = tested on: RAW264.7; assay: Cytotoxicity against mouse RAW264.7 cells assessed as reduction in cell viability at 6.0 uM incubated for 24 hrs by MTT assay; type: cell-based; settings: raw264.7, 24 h
[3] = tested on: L02; assay: Cytotoxicity against human LO2 cells assessed as reduction in cell viability incubated for 24 hrs by MTT assay; type: cell-based; settings: L02, 24 h
[4] = tested on: SMMC-7721; assay: Cytotoxicity against human SMMC7721 cells assessed as reduction in cell viability incubated for 24 hrs by MTT assay; type: functional, cell-based; settings: for IC50: SMMC-7721, 24 h
[5] = Cytotoxicity against human HHL5 cells assessed as reduction in cell viability incubated for 24 hrs by MTT assay; type: cell-based; settings: HHL-5, 24 h
[6] = tested on: HepG2; assay: Cytotoxicity against human HepG2 cells assessed as reduction in cell viability incubated for 24 hrs by MTT assay; type: functional, cell-based; settings: for IC50: HepG2, 24 h
[7] = tested on: QGY-7703; assay: Cytotoxicity against human QGY7703 cells assessed as reduction in cell viability incubated for 24 hrs by MTT assay; type: functional, cell-based; settings: for IC50: QGY-7703, 24 h
[8] = tested on: RAW264.7; assay: Antiinflammatory activity in mouse RAW264.7 cells assessed as inhibition of LPS-stimulated IL-6 production 6.0 uM preincubated for 2 hrs followed by LPS stimulaton measured after 22 hrs by ELISA relative to control; type: functional
[9] = tested on: HepG2; assay: Antitumor activity against human HepG2 cells xenografted in Balb/c nude mouse assessed as induction of incomplete cells at 10 mg/kg, ip administered every 2 days for 20 days and measured every 2 days by H and E staining based assay; type: functional, organism-based
[10] = tested on: HepG2; assay: Induction of apoptosis in human HepG2 cells xenografted in Balb/c nude mouse assessed as reduction in Bcl-2 protein expression at 10 mg/kg, ip administered every 2 days for 20 days and measured every 2 days by immunohistochemistry; type: functional, organism-based
[11] = tested on: HepG2; assay: Antitumor activity against human HepG2 cells xenografted in Balb/c nude mouse assessed as tumor volume level at 10 mg/kg, ip administered every 2 days for 20 days and measured every 2 days; type: functional
[12] = tested on: Mus musculus; assay: Antiinflammatory activity in human HepG2 cells xenografted Balb/c nude mouse assessed as reduction in TNFalpha protein expression at 10 mg/kg, ip administered every 2 days for 20 days and measured every 2 days by immunohistochemistry; type: functional, organism-based
[13] = tested on: HepG2; assay: Antitumor activity against human HepG2 cells xenografted in Balb/c nude mouse assessed as induction of wrinkled abnormalities on cell morphology at 10 mg/kg, ip administered every 2 days for 20 days and measured every 2 days by H and E staining based assay; type: functional, organism-based

SMILES	inhibition [1]	Activity [2]	IC50 [3] [µM]	IC50 [4] [µM]	IC50 [5] [µM]	IC50 [6] [µM]	IC50 [7] [µM]	inhibition [8]	inhibition at 6 µM [1] [%]	inhibition (INH) [8] [%]	Activity [9]	Activity [10]	Activity [11] [mm3]	Activity [12]	Activity [4]	Activity [6]	Activity [13]	Activity [7]
O=C1/C(=C/c2cccnc2)CNC/C1=C\c1ccccc1C(F)(F)F	Active	Non-Toxic	11.3	5.1	10.4	5.02	3.8	Active										
CN1C/C(=C\c2ccncc2)C(=O)/C(=C/c2ccc(C(F)(F)F)cc2)C1	Active	Non-Toxic	17.4	17.7	12.2	8.2	10.4	Active										
O=C1/C(=C/c2cccnc2)CN(S(=O)(=O)c2ccc(Br)cc2)C/C1=C\c1ccccc1F	inactive	Non-Toxic	14.6	9.1	14.2	8.7	12.8	inactive										
CN1C/C(=C\c2cccnc2)C(=O)/C(=C/c2ccccc2C(F)(F)F)C1		Non-Toxic	14.1	3.9	11.1	2.55	2.91		< 30	<30								
COc1cccc2c1C(=O)c1c(O)c3c(c(O)c1C2=O)C[C@@](O)(C(=O)CO)C[C@@H]3O[C@H]1C[C@H](N)[C@H](O)[C@H](C)O1 [DOXORUBICIN]				2.75	12.2		1.37				Active	Active	<200	Active	Dose-dependent effect	Dose-dependent effect	Active	Dose-dependent effect
COc1cc(/C=C2\CN(C)C/C(=C\c3ccncc3)C2=O)cc(OC)c1	Active	Non-Toxic	13.4	5.81	11.1	9.5	8.4	Active										
O=C1/C(=C/c2cccnc2)CN(S(=O)(=O)c2ccc(C(F)(F)F)cc2)C/C1=C\c1ccccc1F	Active	Non-Toxic	11.3	7.9	14.3	2.4	4.5	Active										
CN1C/C(=C\c2cccnc2)C(=O)/C(=C/c2ccccc2F)C1	Active	Non-Toxic	15.9	5.42	13.5	4.81	4.47	Active										
COc1cc(/C=C2\CN(C)C/C(=C\c3cccnc3)C2=O)cc(OC)c1OC	Active	Non-Toxic	14.4	20.4	11.3	9.52	4.3	Active										
O=C1/C(=C/c2cccnc2)CN(S(=O)(=O)c2ccc(F)cc2)C/C1=C\c1ccccc1C(F)(F)F	Active	Non-Toxic	16.1	6.39	12.1	2.34	6.03	Active										
CC(=O)Nc1ccc(S(=O)(=O)N2C/C(=C\c3cccnc3)C(=O)/C(=C/c3ccccc3C(F)(F)F)C2)cc1	Active	Non-Toxic	15.3	9.83	> 20	4.33	5.38	Active										
O=C1/C(=C/c2ccncc2)CN(S(=O)(=O)c2ccc(C(F)(F)F)cc2)C/C1=C\c1ccccc1F	Active	Non-Toxic	18.6	11.1	13.4	4.03	9.5	Active										
CC(=O)Nc1ccc(S(=O)(=O)N2C/C(=C\c3ccncc3)C(=O)/C(=C/c3ccccc3F)C2)cc1	inactive	Non-Toxic	12.3	13.4	14.2	11.7	13.7	inactive										
CN1C/C(=C\c2ccncc2)C(=O)/C(=C/c2ccc(C#N)cc2)C1	Active	Non-Toxic	14	18.5	11.5	13.9	7.4	Active										
Cc1ccc(S(=O)(=O)N2C/C(=C\c3cccnc3)C(=O)/C(=C/c3ccccc3F)C2)cc1	Active	Non-Toxic	14.9	10.3	15.3	4.2	9.7	Active										
CN1C/C(=C\c2ccc(C(F)(F)F)cc2)C(=O)/C(=C/c2cccnc2)C1		Non-Toxic	15.6	4.83	14.2	4.79	1.66		< 30	<30								
O=C1/C(=C/c2cccnc2)CN(S(=O)(=O)c2ccccc2)C/C1=C\c1ccccc1F	inactive	Non-Toxic	15.3	19.1	14	8.21	4.8	inactive										
O=C1/C(=C/c2cccnc2)CN(S(=O)(=O)c2ccc(Cl)cc2)C/C1=C\c1ccccc1C(F)(F)F	Active	Non-Toxic	11.9	4.88	11.1	3.62	3.44	Active										
CN1C/C(=C\c2ccc(C#N)cc2)C(=O)/C(=C/c2cccnc2)C1	Active	Non-Toxic	> 20	13.6	> 20	12.7	> 20	Active										
O=C1/C(=C/c2cccnc2)CN(S(=O)(=O)c2ccc(Cl)cc2)C/C1=C\c1ccccc1F	inactive	Non-Toxic	> 20	16.1	> 20	12.4	12.1	inactive										
COc1cc(/C=C2\CN(C)C/C(=C\c3cccnc3)C2=O)cc(OC)c1	Active	Non-Toxic	18.4	17.9	> 20	6.91	7.9	Active										
N#Cc1ccc(S(=O)(=O)N2C/C(=C\c3cccnc3)C(=O)/C(=C/c3ccccc3C(F)(F)F)C2)cc1	Active	Non-Toxic	13.2	9.65	11.2	5.06	6.15	Active										
CN1C/C(=C\c2ccncc2)C(=O)/C(=C/c2ccccc2F)C1	Active	Non-Toxic	14.9	7	18.5	4.6	4.9	Active										
CN1C/C(=C\c2ccncc2)C(=O)/C(=C/c2ccc(F)cc2Br)C1	Active	Non-Toxic	12.4	23.8	11.6	9.2	6.9	Active										
COc1cc(/C=C2\CN(C)C/C(=C\c3ccncc3)C2=O)cc(OC)c1OC	Active	Non-Toxic	16.4	9.13	12.3	9.8	5.9	Active										
O=C1/C(=C/c2ccncc2)CN(S(=O)(=O)c2ccccc2)C/C1=C\c1ccccc1F	inactive	Non-Toxic	15.9	17.5	> 20	5.8	8.4	inactive										
O=C1/C(=C/c2cccnc2)CN(S(=O)(=O)c2ccc(F)cc2)C/C1=C\c1ccccc1F	inactive	Non-Toxic	15.6	9.9	12.6	15.6	15.3	inactive										
Cc1ccc(S(=O)(=O)N2C/C(=C\c3cccnc3)C(=O)/C(=C/c3ccccc3C(F)(F)F)C2)cc1	Active	Non-Toxic	12.3	6.7	11.1	2.93	6.17	Active										
